Positions count from the first letter of the chain named. Calls of active or inactive are those of the source. The rule behind the calls is not given here.
Tests used:
[1] = tested on: T1, Tyrosine-protein phosphatase non-receptor type 1 (Homo sapiens), P18031 [P87C,A122C]; test: Inhibition of allosterically sensitized His6-tagged human PTP1B catalytic domain P87C/A122C mutant at 2000 nM using pNPP as substrate incubated for 10 to 40 mins by quenched phosphatase activity assay; settings: TDE = time-dependent effect
T1 sequence (whole entry): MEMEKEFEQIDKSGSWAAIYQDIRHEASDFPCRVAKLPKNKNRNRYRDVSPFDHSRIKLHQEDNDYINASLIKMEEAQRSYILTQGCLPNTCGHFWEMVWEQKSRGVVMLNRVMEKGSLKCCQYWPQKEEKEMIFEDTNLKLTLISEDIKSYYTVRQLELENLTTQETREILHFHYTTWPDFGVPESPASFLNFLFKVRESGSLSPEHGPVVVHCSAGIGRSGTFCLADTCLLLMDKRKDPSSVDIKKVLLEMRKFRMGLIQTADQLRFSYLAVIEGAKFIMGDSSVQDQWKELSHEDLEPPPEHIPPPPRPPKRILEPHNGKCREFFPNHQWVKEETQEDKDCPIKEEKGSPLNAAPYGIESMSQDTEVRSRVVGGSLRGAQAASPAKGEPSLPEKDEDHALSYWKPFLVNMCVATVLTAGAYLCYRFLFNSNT

[2] = tested on: T1, Tyrosine-protein phosphatase non-receptor type 1 (Homo sapiens), P18031 [P87C,A122C]; test: Binding affinity to allosterically sensitized His6-tagged human PTP1B catalytic domain P87C/A122C mutant overexpressed in Escherichia coli crude cell lysate incubated for 90 mins by SDS-PAGE and LC-MS/MS method
[3] = molecular target: T2, Tyrosine-protein phosphatase non-receptor type 1 (Homo sapiens, UniProt P18031, A122C/P87C); test: Inhibition of allosterically sensitized His6-tagged human PTP1B catalytic domain P87C/A122C mutant using pNPP as substrate incubated for 90 mins by quenched phosphatase activity assay
[4] = tested on: T1, Tyrosine-protein phosphatase non-receptor type 1 (Homo sapiens), P18031 [P87C,A122C]; test: Binding affinity to allosterically sensitized His6-tagged human PTP1B catalytic domain P87C/A122C mutant overexpressed in Escherichia coli BL21(DE3) cells at 25 to 100 uM after 90 mins by SDS-PAGE and LC-MS/MS method
[5] = molecular target: Tyrosine-protein phosphatase non-receptor type 6 (Homo sapiens) (UniProt P29350); test: Inhibition of allosterically sensitized mutant form of His6-tagged human SHP1 catalytic domain using pNPP as substrate after 120 mins by quenched phosphatase activity assay
[6] = molecular target: T2, Tyrosine-protein phosphatase non-receptor type 1; test: Inhibition of allosterically sensitized His6-tagged human PTP1B catalytic domain P87C/A122C mutant overexpressed in Escherichia coli crude cell lysate using pNPP as substrate incubated for 90 mins by quenched phosphatase activity assay
[7] = tested on: Tyrosine-protein phosphatase non-receptor type 7 (Homo sapiens), P35236 [UNDEFINED MUTATION]; test: Inhibition of allosterically sensitized mutant form of His6-tagged human wild-type HePTP catalytic domain at 1.92 uM using pNPP as substrate incubated for 90 mins by quenched phosphatase activity assay
[8] = molecular target: Tyrosine-protein phosphatase non-receptor type 7 (Homo sapiens, UniProt P35236, P171C/V205C); test: Inhibition of allosterically sensitized mutant form of His6-tagged human HePTP catalytic domain overexpressed in Escherichia coli crude cell lysate using pNPP as substrate incubated for 90 mins by quenched phosphatase activity assay
[9] = tested on: T3, Tyrosine-protein phosphatase non-receptor type 7 (Homo sapiens), P35236 [P171C,V205C]; test: Binding affinity to allosterically sensitized mutant form of His6-tagged human HePTP catalytic domain overexpressed in Escherichia coli BL21(DE3) cells at 50 to 100 uM after 90 mins by SDS-PAGE analysis
T3 sequence (whole entry): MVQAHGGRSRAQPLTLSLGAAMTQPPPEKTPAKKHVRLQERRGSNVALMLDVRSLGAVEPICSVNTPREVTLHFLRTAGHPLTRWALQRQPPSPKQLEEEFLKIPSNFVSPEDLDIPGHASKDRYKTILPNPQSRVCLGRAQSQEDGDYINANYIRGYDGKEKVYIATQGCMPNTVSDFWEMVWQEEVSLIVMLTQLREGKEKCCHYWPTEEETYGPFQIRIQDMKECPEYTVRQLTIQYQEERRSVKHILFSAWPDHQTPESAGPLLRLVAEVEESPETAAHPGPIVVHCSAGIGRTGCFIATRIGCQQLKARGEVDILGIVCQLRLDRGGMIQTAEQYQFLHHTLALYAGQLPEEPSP

[10] = molecular target: T4, Tyrosine-protein phosphatase non-receptor type 7 (Homo sapiens) (UniProt P35236); test: Inhibition of His6-tagged human wild-type HePTP catalytic domain overexpressed in Escherichia coli BL21(DE3) cells at 100 uM using pNPP as substrate incubated for 90 mins by quenched phosphatase activity assay
T4 sequence (whole entry): T3 sequence (whole entry) with C171P, C205V

[11] = molecular target: Tyrosine-protein phosphatase non-receptor type 13 (Homo sapiens) (UniProt Q12923); test: Inhibition of allosterically sensitized mutant form of His6-tagged human FAP1 catalytic domain using pNPP as substrate after 90 mins by quenched phosphatase activity assay
[12] = tested on: T3, Tyrosine-protein phosphatase non-receptor type 7 (Homo sapiens), P35236 [P171C,V205C]; test: Inhibition of allosterically sensitized mutant form of His6-tagged human HePTP catalytic domain at 1 uM using pNPP as substrate measured up to 10 mins by quenched phosphatase activity assay
[13] = tested on: T3, Tyrosine-protein phosphatase non-receptor type 7 (Homo sapiens), P35236 [P171C,V205C]; test: Inhibition of allosterically sensitized mutant form of His6-tagged human HePTP at 1000 nM using pNPP as substrate measured at 5 mins by quenched phosphatase activity assay
[14] = tested on: Tyrosine-protein phosphatase non-receptor type 7 (Homo sapiens), P35236 [UNDEFINED MUTATION]; test: Inhibition of Inhibition of allosterically sensitized mutant form of His6-tagged […] human HePTP catalytic domain overexpressed in Escherichia coli BL21(DE3) cells at 25 uM using pNPP as substrate incubated for 90 mins by quenched phosphatase activity assay
[15] = tested on: T3, Tyrosine-protein phosphatase non-receptor type 7 (Homo sapiens), P35236 [P171C,V205C]; test: Binding affinity to allosterically sensitized mutant form of His6-tagged human HePTP catalytic domain overexpressed in Escherichia coli crude cell lysate at 100 uM after 90 mins by SDS-PAGE analysis
[16] = molecular target: T4, Tyrosine-protein phosphatase non-receptor type 7 (Homo sapiens); test: Inhibition of His6-tagged wild type human HePTP catalytic domain overexpressed in Escherichia coli BL21(DE3) cells at 25 uM using pNPP as substrate incubated for 90 mins by quenched phosphatase activity assay

Sequence of Tyrosine-protein phosphatase non-receptor type 7 (Homo sapiens), P35236 [UNDEFINED MUTATION] (P35236 whole entry, looked up, stated change not applied, the tested form may be a part): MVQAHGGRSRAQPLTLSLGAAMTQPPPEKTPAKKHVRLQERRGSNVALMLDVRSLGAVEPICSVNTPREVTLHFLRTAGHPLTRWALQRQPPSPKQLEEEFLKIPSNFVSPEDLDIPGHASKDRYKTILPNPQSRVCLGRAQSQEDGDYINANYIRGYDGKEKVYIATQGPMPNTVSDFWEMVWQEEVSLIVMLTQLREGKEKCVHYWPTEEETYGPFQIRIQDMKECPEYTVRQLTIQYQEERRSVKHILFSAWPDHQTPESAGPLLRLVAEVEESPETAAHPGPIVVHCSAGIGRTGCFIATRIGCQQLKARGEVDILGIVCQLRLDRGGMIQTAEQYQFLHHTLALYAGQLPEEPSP
Sequence of Tyrosine-protein phosphatase non-receptor type 13 (Homo sapiens) (Q12923 whole entry, the tested form may be a part): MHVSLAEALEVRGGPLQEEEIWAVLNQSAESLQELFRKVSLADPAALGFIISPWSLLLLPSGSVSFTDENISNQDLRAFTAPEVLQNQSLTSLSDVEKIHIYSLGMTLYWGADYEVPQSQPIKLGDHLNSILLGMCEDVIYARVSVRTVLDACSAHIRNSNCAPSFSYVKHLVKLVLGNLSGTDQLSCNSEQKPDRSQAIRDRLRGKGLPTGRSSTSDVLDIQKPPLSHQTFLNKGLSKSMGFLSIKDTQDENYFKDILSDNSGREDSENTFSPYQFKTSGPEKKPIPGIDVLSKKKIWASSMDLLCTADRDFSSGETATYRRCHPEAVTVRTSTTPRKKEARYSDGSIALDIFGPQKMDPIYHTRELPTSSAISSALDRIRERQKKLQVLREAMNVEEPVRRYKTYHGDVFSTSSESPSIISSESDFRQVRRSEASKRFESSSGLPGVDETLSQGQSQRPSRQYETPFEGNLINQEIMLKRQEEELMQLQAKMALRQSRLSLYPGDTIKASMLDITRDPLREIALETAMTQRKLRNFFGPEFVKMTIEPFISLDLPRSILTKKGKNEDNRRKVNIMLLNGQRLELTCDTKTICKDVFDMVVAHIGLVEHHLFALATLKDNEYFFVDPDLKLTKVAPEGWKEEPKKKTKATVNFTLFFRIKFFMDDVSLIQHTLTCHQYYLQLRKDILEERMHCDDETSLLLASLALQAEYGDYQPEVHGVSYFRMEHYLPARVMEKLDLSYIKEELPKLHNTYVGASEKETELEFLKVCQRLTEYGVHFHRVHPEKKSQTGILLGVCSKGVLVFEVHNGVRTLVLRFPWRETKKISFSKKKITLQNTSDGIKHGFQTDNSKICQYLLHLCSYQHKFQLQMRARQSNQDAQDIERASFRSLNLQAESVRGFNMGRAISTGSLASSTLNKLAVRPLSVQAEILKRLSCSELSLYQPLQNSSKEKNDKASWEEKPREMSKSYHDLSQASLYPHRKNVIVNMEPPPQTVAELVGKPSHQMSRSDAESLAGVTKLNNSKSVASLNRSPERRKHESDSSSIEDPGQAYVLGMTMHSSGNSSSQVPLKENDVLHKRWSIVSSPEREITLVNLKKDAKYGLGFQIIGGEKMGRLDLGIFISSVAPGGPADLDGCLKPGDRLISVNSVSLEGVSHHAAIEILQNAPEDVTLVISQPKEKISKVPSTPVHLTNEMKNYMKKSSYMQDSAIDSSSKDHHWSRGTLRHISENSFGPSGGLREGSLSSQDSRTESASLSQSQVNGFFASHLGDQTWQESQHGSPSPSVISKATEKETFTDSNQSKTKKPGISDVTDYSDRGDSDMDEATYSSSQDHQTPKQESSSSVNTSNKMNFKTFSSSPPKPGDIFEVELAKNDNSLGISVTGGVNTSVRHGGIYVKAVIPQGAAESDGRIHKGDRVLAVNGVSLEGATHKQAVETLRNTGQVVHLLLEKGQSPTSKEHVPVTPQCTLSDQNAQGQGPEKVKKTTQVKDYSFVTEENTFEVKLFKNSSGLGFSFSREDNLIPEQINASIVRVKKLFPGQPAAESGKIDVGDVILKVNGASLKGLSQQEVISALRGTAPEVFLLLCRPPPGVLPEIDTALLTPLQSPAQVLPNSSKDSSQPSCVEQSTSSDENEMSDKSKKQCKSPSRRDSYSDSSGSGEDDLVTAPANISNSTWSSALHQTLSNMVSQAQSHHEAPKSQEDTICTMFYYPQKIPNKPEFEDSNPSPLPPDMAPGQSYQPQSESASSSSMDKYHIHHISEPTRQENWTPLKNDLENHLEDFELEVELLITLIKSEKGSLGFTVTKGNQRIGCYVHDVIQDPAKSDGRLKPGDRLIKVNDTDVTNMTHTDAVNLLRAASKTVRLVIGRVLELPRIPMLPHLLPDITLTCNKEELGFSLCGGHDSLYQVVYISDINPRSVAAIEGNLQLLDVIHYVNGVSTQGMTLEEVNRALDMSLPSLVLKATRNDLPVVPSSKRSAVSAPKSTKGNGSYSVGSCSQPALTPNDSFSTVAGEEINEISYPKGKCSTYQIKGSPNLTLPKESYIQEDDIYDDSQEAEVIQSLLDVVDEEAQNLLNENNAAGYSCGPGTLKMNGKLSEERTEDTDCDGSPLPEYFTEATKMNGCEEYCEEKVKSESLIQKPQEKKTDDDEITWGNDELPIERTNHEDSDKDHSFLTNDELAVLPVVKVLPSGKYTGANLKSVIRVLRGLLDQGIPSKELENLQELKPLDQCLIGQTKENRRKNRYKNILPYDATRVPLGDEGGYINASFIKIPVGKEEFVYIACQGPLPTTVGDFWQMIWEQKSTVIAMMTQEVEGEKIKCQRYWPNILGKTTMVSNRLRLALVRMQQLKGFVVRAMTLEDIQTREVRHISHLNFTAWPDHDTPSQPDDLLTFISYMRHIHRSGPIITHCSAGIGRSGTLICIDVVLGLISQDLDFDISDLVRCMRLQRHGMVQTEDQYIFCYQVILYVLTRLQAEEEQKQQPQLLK
Sequence of Tyrosine-protein phosphatase non-receptor type 6 (Homo sapiens) (P29350 whole entry, the tested form may be a part): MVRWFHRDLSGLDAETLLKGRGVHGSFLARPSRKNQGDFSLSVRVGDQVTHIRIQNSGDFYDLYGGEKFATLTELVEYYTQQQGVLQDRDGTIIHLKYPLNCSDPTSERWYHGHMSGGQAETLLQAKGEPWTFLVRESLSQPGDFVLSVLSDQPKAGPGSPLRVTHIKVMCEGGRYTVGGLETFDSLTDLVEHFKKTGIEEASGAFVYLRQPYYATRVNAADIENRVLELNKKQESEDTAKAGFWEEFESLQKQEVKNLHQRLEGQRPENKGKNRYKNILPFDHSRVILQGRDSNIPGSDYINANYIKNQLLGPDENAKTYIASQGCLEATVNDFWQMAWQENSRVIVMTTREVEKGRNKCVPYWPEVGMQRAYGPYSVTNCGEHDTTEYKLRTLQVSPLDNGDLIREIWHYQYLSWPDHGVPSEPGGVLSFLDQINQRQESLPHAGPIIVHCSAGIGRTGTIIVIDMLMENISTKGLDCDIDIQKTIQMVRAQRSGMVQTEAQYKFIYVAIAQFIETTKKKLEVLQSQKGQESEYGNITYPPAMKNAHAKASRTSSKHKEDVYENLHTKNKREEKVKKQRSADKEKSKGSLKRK

Compound | inhibition [1] | Activity [2] | IC50 [3] | Activity [4] | inhibition [5] | IC50 [6] | inhibition [7] | IC50 [8] | Activity [9] | inhibition [10] | inhibition [11] | inhibition [12] | inhibition [13] | inhibition [14] | Activity [15] | inhibition [16]
CC1(C)C(/C=C/C=C2/N(CCCCS(=O)(=O)O)c3ccc([As]4SCCS4)cc3C2(C)C)=[N+](CCCCS(=O)(=O)O)c2ccc([As]3SCCS3)cc21 | Tde | Dose-dependent effect | 125 nM | Active | Dose-dependent effect | 125 nM | – | – | – | – | – | – | – | – | – | –
O=C(O)c1ccccc1-c1c2ccc(=O)c([As]3SCCS3)c-2oc2c([As]3SCCS3)c(O)ccc12 | – | – | – | – | – | – | 50% | 250 nM | Active | inactive | Dose-dependent effect | 50% | 70% | Active | inactive | inactive
